Assay results published in ChEMBL document CHEMBL1201862, “PubChem BioAssay data set” (2004).
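Dose response: 5 concentrations. Exposure: 48 h. Format: 96-well plates. Endpoint: linear interpolation; highest concentration if not reached. GI50 is the concentration that inhibits growth by half.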 The source made the active and inactive calls. Cut-off read from the data, not from the text of the source: active = GI50 up to about 1.1 µM and inactive = higher.

How the values were obtained:
Test in all cases: NCI anticancer screen, dose series, 48 h
UACC-257 = test system: UACC-257
UACC-62 = test system: UACC-62
NCI-H522 = test system: NCI-H522
SK-OV-3 = test system: SK-OV-3
SK-MEL-28 = test system: SK-MEL-28
NCI/ADR-RES = test system: NCI/ADR-RES
Malme-3M = test system: Malme-3M
K562 = test system: K562
NCI-H23 = test system: NCI-H23
MDA-MB-435 = test system: MDA-MB-435
HOP-92 = test system: HOP-92
LOX IMVI = test system: LOX IMVI
A498 = test system: A498
SNB-19 = test system: SNB-19
BT-549 = test system: BT-549
CAKI-1 = test system: CAKI-1
SR = test system: SR
HCT-15 = test system: HCT-15
HOP-62 = test system: HOP-62
T47D = test system: T47D
OVCAR-3 = test system: OVCAR-3
SF-268 = test system: SF-268
MDA-MB-231 = test system: MDA-MB-231
UO-31 = test system: UO-31
Hs-578T = test system: Hs-578T
SW-620 = test system: SW-620
CCRF-CEM = test system: CCRF-CEM
RXF 393 = test system: RXF 393
SK-MEL-5 = test system: SK-MEL-5
M14 = test system: M14
SF-295 = test system: SF-295
HL-60 = test system: HL-60
TK-10 = test system: TK-10
DU-145 = test system: DU-145
SNB-75 = test system: SNB-75
MCF7 = test system: MCF7
HCT-116 = test system: HCT-116
KM12 = test system: KM12
786-0 = test system: 786-0
NCI-H226 = test system: NCI-H226
OVCAR-5 = test system: OVCAR-5
HT-29 = test system: HT-29
MDA-N = test system: MDA-N
U-251 = test system: U-251
OVCAR-8 = test system: OVCAR-8
RPMI-8226 = test system: RPMI-8226
EKVX = test system: EKVX
MOLT-4 = test system: MOLT-4
A549 = test system: A549
IGROV-1 = test system: IGROV-1
SK-MEL-2 = test system: SK-MEL-2
NCI-H460 = test system: NCI-H460
COLO 205 = test system: COLO 205
SN12C = test system: SN12C

COc1cccc(Cc2cc(=O)c3ccc(C)nc3[nH]2)c1
GI50 (UACC-257): > 100 µM (inactive) | GI50 (UACC-62): > 100 µM (inactive) | GI50 (NCI-H522): 13.2 µM (inactive) | GI50 (SK-OV-3): > 100 µM (inactive) | GI50 (SK-MEL-28): > 100 µM (inactive) | GI50 (NCI/ADR-RES): > 100 µM (inactive) | GI50 (Malme-3M): 57.7 µM (inactive) | GI50 (K562): 86.7 µM (inactive) | GI50 (NCI-H23): > 100 µM (inactive) | GI50 (MDA-MB-435): > 100 µM (inactive) | GI50 (HOP-92): > 100 µM (inactive) | GI50 (LOX IMVI): > 100 µM (inactive) | GI50 (A498): 73.5 µM (inactive) | GI50 (SNB-19): > 100 µM (inactive) | GI50 (BT-549): 94.8 µM (inactive) | GI50 (CAKI-1): > 100 µM (inactive) | GI50 (SR): 35.8 µM (inactive) | GI50 (HCT-15): > 100 µM | GI50 (HOP-62): > 100 µM (inactive) | GI50 (T47D): > 100 µM (inactive) | GI50 (OVCAR-3): > 100 µM (inactive) | GI50 (SF-268): > 100 µM (inactive) | GI50 (MDA-MB-231): > 100 µM (inactive) | GI50 (UO-31): > 100 µM (inactive) | GI50 (Hs-578T): 60.1 µM (inactive) | GI50 (SW-620): > 100 µM (inactive) | GI50 (CCRF-CEM): > 100 µM (inactive) | GI50 (RXF 393): > 100 µM (inactive) | GI50 (SK-MEL-5): > 100 µM (inactive) | GI50 (M14): > 100 µM (inactive) | GI50 (SF-295): > 100 µM (inactive) | GI50 (HL-60): 55.5 µM (inactive) | GI50 (TK-10): > 100 µM (inactive) | GI50 (DU-145): > 100 µM (inactive) | GI50 (SNB-75): 93.8 µM (inactive) | GI50 (MCF7): > 100 µM (inactive) | GI50 (HCT-116): > 100 µM (inactive) | GI50 (KM12): > 100 µM (inactive) | GI50 (786-0): > 100 µM (inactive) | GI50 (NCI-H226): > 100 µM (inactive) | GI50 (OVCAR-5): > 100 µM (inactive) | GI50 (HT-29): > 100 µM (inactive) | GI50 (MDA-N): > 100 µM (inactive) | GI50 (U-251): > 100 µM (inactive) | GI50 (OVCAR-8): > 100 µM (inactive) | GI50 (RPMI-8226): 48.6 µM (inactive) | GI50 (EKVX): > 100 µM (inactive) | GI50 (MOLT-4): 41.3 µM (inactive) | GI50 (A549): > 100 µM (inactive) | GI50 (IGROV-1): > 100 µM (inactive) | GI50 (SK-MEL-2): > 100 µM (inactive) | GI50 (NCI-H460): > 100 µM (inactive) | GI50 (COLO 205): > 100 µM (inactive) | GI50 (SN12C): > 100 µM (inactive)
